Results published in the supplement of paper PMC10307832.

How the values were obtained:
Test in all cases: relative viability (nuclei count vs DMSO), 5 days (fraction); higher = more cells survive
NVP-TAE684 + Decitabine = compound: COc1cc(N2CCC(N3CCN(C)CC3)CC2)ccc1Nc1ncc(Cl)c(Nc2ccccc2S(=O)(=O)C(C)C)n1 [NVP-TAE684] + Nc1ncn([C@H]2C[C@H](O)[C@@H](CO)O2)c(=O)n1 [Decitabine] (partner 2 µM)
Outline: (§1)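 Lung cancer cell lines were seeded in 1536-well plates and dosed by pin tool the next day, with either a single drug or a fixed anchor-drug dose combined with five library-drug doses (not always all listed) spaced in √10 steps. Five days later, one step fixed the cells and stained their nuclei (final 0.05% Triton X-100, 1% formaldehyde, 1 ug/ml Hoechst), and nuclei were counted on 4× images. Relative viability is the nuclei count in treated wells divided by the count in vehicle wells, and each value is the median of duplicate plates.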

Vandetanib + Trametinib = compound: COc1cc2/c(=N/c3ccc(Br)cc3F)nc[nH]c2cc1OCC1CCN(C)CC1 [Vandetanib] + CC(=O)Nc1cccc(-n2c(=O)n(C3CC3)c(=O)c3c(Nc4ccc(I)cc4F)n(C)c(=O)c(C)c32)c1 [Trametinib] (partner 0.02 µM)
Outline: as §1

[1] = compound: C1=CC=C2C(=C1)N=C(S2)C(C#N)C3=NC(=NC=C3)NCCC4=CN=CC=C4 + CCNC(=O)c1noc(-c2cc(C(C)C)c(O)cc2O)c1-c1ccc(CN2CCOCC2)cc1 [Luminespib] (partner 0.01 µM)
Outline: as §1

[2] = compound: C1=CC=C2C(=C1)N=C(S2)C(C#N)C3=NC(=NC=C3)NCCC4=CN=CC=C4 + CS(=O)(=O)CCNCc1ccc(-c2ccc3ncnc(Nc4ccc(OCc5cccc(F)c5)c(Cl)c4)c3c2)o1 [Lapatinib] (partner 2 µM)
Outline: as §1

Cell Line	relative viability (NVP-TAE684 + Decitabine; first compound 0.6325 µM)	relative viability (NVP-TAE684 + Decitabine; first compound 2 µM)	relative viability (Vandetanib + Trametinib; first compound 0.02 µM)	relative viability (Vandetanib + Trametinib; first compound 0.06325 µM)	relative viability (Vandetanib + Trametinib; first compound 0.2 µM)	relative viability (Vandetanib + Trametinib; first compound 0.6325 µM)	relative viability (Vandetanib + Trametinib; first compound 2 µM)	relative viability ([1]; first compound 0.005 µM)	relative viability ([1]; first compound 0.01581 µM)	relative viability ([1]; first compound 0.05 µM)	relative viability ([1]; first compound 0.1581 µM)	relative viability ([1]; first compound 0.5 µM)	relative viability ([2]; first compound 0.005 µM)	relative viability ([2]; first compound 0.01581 µM)	relative viability ([2]; first compound 0.05 µM)	relative viability ([2]; first compound 0.1581 µM)	relative viability ([2]; first compound 0.5 µM)	relative viability (NVP-TAE684 + Decitabine; first compound 0.2 µM)
201T	0.867	0.684	0.715	0.68	0.751	0.696	0.676	1.06	1.06	1.09	1.07	1.07	0.981	0.958	1.01	1.09	1.02	–
A549	0.248	0.286	–	–	–	–	–	–	–	–	–	–	1.04	0.97	1.04	1.07	0.942	–
A-427	0.53	0.44	0.734	0.662	0.745	0.737	0.742	0.784	1	0.861	1.18	0.965	0.78	0.889	1.01	1.12	1.08	0.58
ABC-1	0.938	0.679	–	–	–	–	–	–	0.736	0.374	0.855	0.737	1.08	1.26	1.21	1.02	1.21	1.14
BEN	0.622	0.643	1.09	1.01	0.985	1	0.798	0.081	0.337	0.254	0.688	0.342	0.561	0.689	0.62	0.792	0.826	–
CAL-12T	–	–	0.342	0.3	0.316	0.242	0.305	0.371	0.361	0.422	0.435	0.235	0.782	–	–	0.675	0.674	–
COR-L23	0.339	0.252	0.619	0.517	0.695	0.71	0.641	0.404	0.825	0.727	1.06	0.614	0.629	1.15	1.01	1.29	0.71	0.415
COR-L 105	0.701	0.429	0.42	0.405	0.427	0.383	0.416	0.782	0.848	0.85	0.826	0.657	0.362	0.336	0.342	0.372	0.369	0.681
Calu-6	–	–	–	–	–	–	–	–	–	–	–	–	0.877	1.05	0.959	1.18	0.958	–
ChaGo-K-1	0.52	0.427	0.878	0.87	0.253	0.929	0.866	–	0.678	0.594	0.693	0.67	–	–	–	–	–	0.536
EBC-1	–	–	–	–	–	–	–	–	–	–	–	–	0.272	0.19	0.239	0.194	0.259	–
HCC-78	0.634	0.49	0.73	0.814	0.684	0.809	0.525	–	–	–	–	–	1.07	0.664	0.57	1.01	0.896	0.636
HCC-366	0.401	0.315	0.265	0.339	0.343	0.362	0.269	–	–	–	–	–	0.941	1.15	0.921	1.18	1.07	0.37
IA-LM	–	–	–	–	–	–	–	–	–	–	–	–	–	1.02	0.824	0.888	0.673	–
LCLC-103H	0.69	0.683	0.665	0.606	0.638	0.677	0.695	0.773	0.854	0.905	0.944	0.96	–	–	–	–	–	0.7
NCI-H441	0.279	0.232	0.527	0.467	0.43	0.405	0.351	–	0.308	0.351	0.365	0.301	–	–	–	–	–	0.235
NCI-H522	0.731	0.66	0.87	0.818	0.856	0.791	0.771	1.07	1.05	1.12	1.15	1.12	–	–	–	–	–	0.604
NCI-H1299	–	–	–	–	–	–	–	–	–	–	–	–	0.941	0.991	0.946	0.998	0.918	–
NCI-H1563	–	–	–	–	–	–	–	0.534	0.52	0.507	0.553	0.552	0.857	0.871	0.775	0.938	0.916	–
NCI-H1623	–	–	–	–	–	–	–	0.932	0.466	0.508	0.322	0.346	–	–	–	–	–	–
NCI-H1648	0.449	0.27	0.426	0.461	0.512	0.541	0.506	–	–	–	–	–	–	–	–	–	–	0.39
NCI-H1703	–	–	–	–	–	–	–	–	–	–	–	–	0.869	1.11	0.851	1.1	1.19	–
NCI-H2228	–	–	0.511	0.386	0.561	0.64	0.28	0.146	0.117	0.153	0.163	0.142	0.725	1.01	1.18	1.46	0.924	–
NCI-H2342	0.835	0.632	0.823	0.826	0.869	0.851	0.809	0.555	0.708	0.794	0.776	0.841	–	–	–	–	–	0.727
SW 900	0.444	0.421	0.654	0.71	–	0.673	0.549	0.164	0.205	0.175	0.197	0.179	–	–	–	–	–	0.433
